Test results as given in ChEMBL document CHEMBL1201862, “PubChem BioAssay data set” (2004).
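A five-concentration, 48-hour dose response in 96-well plates underlies each endpoint, interpolated linearly between surrounding concentrations. Here, GI50 denotes the concentration required for 50% inhibition of growth.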 Active and inactive are the calls of the source. Cut-off read from the data, not from the text of the source: active = GI50 up to about 1.1 µM and inactive = higher.

Experiments:
Assay in all cases: growth of human tumour cells (NCI), 48 h
HCC 2998 = tested on: HCC 2998
RPMI-8226 = tested on: RPMI-8226
IGROV-1 = tested on: IGROV-1
NCI-H23 = tested on: NCI-H23
TK-10 = tested on: TK-10
786-0 = tested on: 786-0
UO-31 = tested on: UO-31
SNB-75 = tested on: SNB-75
Malme-3M = tested on: Malme-3M
UACC-257 = tested on: UACC-257
ACHN = tested on: ACHN
SF-268 = tested on: SF-268
KM12 = tested on: KM12
A549 = tested on: A549
HL-60 = tested on: HL-60
HCT-116 = tested on: HCT-116
SR = tested on: SR

Measured: GI50

CC1OC(OC2C(OC(=O)[C@]34CCC(C)(C)CC3C3=CCC5[C@@]6(C)C[C@H](O)[C@H](OC7OC(COC8OC(CO)C(O)C(O)C8O)C(O)C(O)C7O)[C@@](C)(C(=O)O)C6CC[C@@]5(C)C3(C)CC4)OCC(O)C2O)C(O)C(O)C1OC1OCC(O)C(O)C1O (stereo not given in full)
inactive: HCC 2998 > 100 µM | RPMI-8226 > 100 µM | IGROV-1 > 100 µM | NCI-H23 > 100 µM | TK-10 > 100 µM | 786-0 > 100 µM | UO-31 > 100 µM | SNB-75 > 100 µM | Malme-3M > 100 µM | UACC-257 > 100 µM | ACHN > 100 µM | SF-268 > 100 µM | KM12 > 100 µM | A549 > 100 µM | HL-60 > 100 µM

[O-][S+]1c2ccccc2N=C(c2ccc3ccccc3c2)CC1c1ccccc1F (stereo not given)
inactive: HCC 2998 > 100 µM | RPMI-8226 58.6 µM | IGROV-1 > 100 µM | NCI-H23 > 100 µM | TK-10 > 100 µM | 786-0 > 100 µM | UO-31 > 100 µM | SNB-75 20.5 µM | Malme-3M > 100 µM | UACC-257 > 100 µM | ACHN > 100 µM | SF-268 > 100 µM | KM12 > 100 µM | A549 > 100 µM | HL-60 > 100 µM

O=C(Cc1nc2ccccc2c(=O)n1-c1ccccc1Cl)c1ccncc1
inactive: HCC 2998 > 100 µM | IGROV-1 > 100 µM | HCT-116 > 100 µM | NCI-H23 > 100 µM | TK-10 > 100 µM | 786-0 > 100 µM | UO-31 > 100 µM | SNB-75 15 µM | Malme-3M > 100 µM | UACC-257 > 100 µM | ACHN > 100 µM | SF-268 > 100 µM | KM12 > 100 µM | A549 > 100 µM | HL-60 37.6 µM

COC(=O)C(CC(=O)Nc1ccc(C)cc1)C(=O)C(=O)Nc1c(C(C)C)cccc1C(C)C (stereo not given)
inactive: HCC 2998 > 100 µM | RPMI-8226 > 100 µM | IGROV-1 > 100 µM | HCT-116 > 100 µM | NCI-H23 > 100 µM | TK-10 > 100 µM | 786-0 > 100 µM | UO-31 > 100 µM | SNB-75 97.7 µM | Malme-3M > 100 µM | ACHN > 100 µM | SF-268 > 100 µM | A549 > 100 µM | HL-60 > 100 µM

CN(C)CC1CCCC/C1=N/O (stereo not given)
inactive: HCC 2998 > 100 µM | RPMI-8226 > 100 µM | IGROV-1 > 100 µM | HCT-116 > 100 µM | NCI-H23 > 100 µM | TK-10 > 100 µM | 786-0 > 100 µM | UO-31 > 100 µM | SNB-75 > 100 µM | Malme-3M > 100 µM | UACC-257 > 100 µM | ACHN > 100 µM | SF-268 > 100 µM | KM12 > 100 µM | A549 > 100 µM | HL-60 > 100 µM

Cc1cc(C)nc(Sc2c([N+](=O)[O-])ncn2C)n1
inactive: HCC 2998 > 100 µM | RPMI-8226 > 100 µM | IGROV-1 > 100 µM | HCT-116 > 100 µM | NCI-H23 > 100 µM | TK-10 > 100 µM | 786-0 > 100 µM | UO-31 > 100 µM | SNB-75 > 100 µM | SR > 100 µM | Malme-3M 94.6 µM | UACC-257 > 100 µM | ACHN > 100 µM | SF-268 > 100 µM | KM12 > 100 µM | A549 > 100 µM

NC(=S)N/N=C1\C(=O)N(c2cccc([N+](=O)[O-])c2)C(=O)C1C(=O)Nc1cccc([N+](=O)[O-])c1 (stereo not given)
inactive: HCC 2998 > 100 µM | RPMI-8226 > 100 µM | IGROV-1 > 100 µM | HCT-116 > 100 µM | NCI-H23 > 100 µM | TK-10 > 100 µM | 786-0 > 100 µM | UO-31 > 100 µM | SNB-75 > 100 µM | Malme-3M > 100 µM | UACC-257 > 100 µM | ACHN > 100 µM | SF-268 > 100 µM | A549 > 100 µM | HL-60 38.4 µM

COC(=O)N/N=C(\C)CC(=O)Nc1cccc([N+](=O)[O-])c1
inactive: HCC 2998 > 100 µM | RPMI-8226 > 100 µM | IGROV-1 > 100 µM | HCT-116 > 100 µM | NCI-H23 > 100 µM | TK-10 > 100 µM | 786-0 > 100 µM | UO-31 > 100 µM | SNB-75 > 100 µM | Malme-3M > 100 µM | UACC-257 > 100 µM | SF-268 > 100 µM | KM12 > 100 µM | A549 > 100 µM | HL-60 > 100 µM

Cc1c2n(c3ccccc13)CC1C2N(C)OC1(C)C (stereo not given)
inactive: HCC 2998 > 100 µM | RPMI-8226 > 100 µM | HCT-116 > 100 µM | NCI-H23 > 100 µM | 786-0 > 100 µM | UO-31 86.7 µM | SNB-75 81.5 µM | SR > 100 µM | Malme-3M > 100 µM | UACC-257 > 100 µM | ACHN > 100 µM | SF-268 > 100 µM | KM12 > 100 µM | A549 > 100 µM

COc1cc(C(N)=O)c(OC)c(OC)c1OC
inactive: HCC 2998 > 100 µM | RPMI-8226 > 100 µM | IGROV-1 > 100 µM | HCT-116 > 100 µM | NCI-H23 > 100 µM | TK-10 > 100 µM | 786-0 > 100 µM | UO-31 > 100 µM | SNB-75 69.8 µM | ACHN > 100 µM | SF-268 > 100 µM | KM12 > 100 µM | A549 > 100 µM | HL-60 > 100 µM

CC(=O)OCC1OC(OC2C(CSC3OC(COC(C)=O)C(OC(C)=O)C(OC(C)=O)C3OC(C)=O)OC(OC(C)=O)C(OC(C)=O)C2OC(C)=O)C(OC(C)=O)C(OC(C)=O)C1OC(C)=O (stereo not given)
inactive: HCC 2998 > 100 µM | RPMI-8226 > 100 µM | IGROV-1 > 100 µM | HCT-116 > 100 µM | NCI-H23 > 100 µM | TK-10 > 100 µM | 786-0 > 100 µM | UO-31 > 100 µM | SNB-75 > 100 µM | SR > 100 µM | Malme-3M > 100 µM | ACHN > 100 µM | SF-268 > 100 µM | KM12 > 100 µM | A549 > 100 µM

COc1ccc(CCn2c(=O)c3ccccc3n(C)c2=O)cc1
inactive: HCC 2998 21 µM | RPMI-8226 39 µM | IGROV-1 > 100 µM | HCT-116 38.7 µM | NCI-H23 48.6 µM | TK-10 54.8 µM | 786-0 67.1 µM | UO-31 40.4 µM | SNB-75 25.9 µM | Malme-3M 48 µM | UACC-257 61.7 µM | ACHN > 100 µM | SF-268 56.4 µM | KM12 8.77 µM | A549 50.9 µM

Nc1c(S(=O)(=O)c2ccc(Cl)cc2)c2nc3ccccc3nc2n2ccnc12
inactive: HCC 2998 > 100 µM | RPMI-8226 > 100 µM | IGROV-1 98.6 µM | HCT-116 44.3 µM | NCI-H23 > 100 µM | TK-10 24.9 µM | 786-0 36.2 µM | UO-31 > 100 µM | SNB-75 31.6 µM | Malme-3M > 100 µM | UACC-257 > 100 µM | ACHN 40.3 µM | SF-268 43.1 µM | KM12 > 100 µM | A549 85.9 µM | HL-60 30.1 µM
